Results published in PMC8639922, “KSHV transactivator-derived small peptide traps coactivators to attenuate MYC and inhibits leukemia and lymphoma cell growth” (Communications Biology, 2021).
Square brackets hold non-standard residues; d marks the D form. Peptide text beside a SMILES is read from it. Orn = NCCC[C@H](N)C(=O)O; βAla = NCCC(=O)O

Tests used:
BC-1 = experiment: Flow cytometry, apoptosis induction (Annexin V staining); assay type: cell-based, human; details: BC-1, 24 h, AnnexinV+ 7AAD-
Description: Leukoreduction system chambers (LRS) from healthy donors were purchased from Vitalant. Peripheral blood mononuclear cells (PBMCs) were prepared by a standard Ficoll gradient method. PBMCs along with THP-1 and BCBL-1 cell lines (2 × 10^6 cells/ml, 0.2 ml 10% FBS/RPMI/DMEM per well of a 96-well plate) were treated with various doses (0–256 μM) of either VGN50 peptide or control mutant peptide for 24 h. Cell death, apoptosis, and proliferation were analyzed by flow cytometry (BD Acuri) after intracellular staining with anti-humanKi67-Alexa488 (Biolegend, 1:100) along with the isotype control antibody, annexin-V-FITC with 7-AAD staining (Biolegend) according to the manufacture’s protocol, Live/dead Fixable Red Dead Cell staining kit (Invitrogen) according to the manufacture’s protocol, or MTT assay. Peptides were commercially synthesized (GenScript) with >90% purity with TFA removal.
AnnexinV+ 7AAD- % = apoptosis % […]
S-Figure 3. Flow cytometry analyses
(a) Apoptosis (%) was determined as Annexi nV+ 7AAD- popul at i on gat ed i n r ed shown i n
representative FACS plots of BCBL-1 cel l s t r eat ed wi t h PBS or VGN50 at 32µM. […]

[1] = system: MYC promoter and putative enhancer regions; experiment: CUT&RUN qPCR, coactivator complex recruitment (PolII, BRD4, SMARCA4); assay type: cell-based, human
Excerpt: We next examined the molecular mechanism of MYC down-regulation by VGN50. We first utilized Cleavage under targets & release using nuclease (CUT&RUN)-sequencing to examine histone modifications that are known to be associated with enhancers in order to map putative MYC enhancer regions in PEL cells (Fig. 5a). Genome-wide CUT&RUN studies identified putative enhancer and promoter regulatory regions that are marked by H3K27Ac, H3K4me1, POLR2A (RNAPII), BRD4, and SMARCC1, a component of the SWI/SNF complex (Fig. 1b and 5a). The identified putative MYC enhancers were also in good agreement with previous ChIP Hi-C[53] and ChIP-seq data sets[54]. Specific primer pairs were then designed to amplify the respective enhancer regions and to examine regulation of coactivator complex recruitment by VGN50.
Fig. 5 A molecular mechanism of VGN50-mediated MYC-down-regulation. a Cleavage under targets & release using nuclease (CUT&RUN). CUT&RUN was performed with BCBL-1 and BC-1 with the indicated antibodies. Enrichment of active histone modifications, and occupancies of RNAPII and SWI/SNF components at the MYC genomic region are shown as peaks. One of the biological duplicate samples for the BCBL-1 cell line is presented. […] The MYC promoter, enhancer, and negative control regions used for qPCR analyses are indicated with shading. The positions of the MYC coding region, CASC11 coding region, and long non-coding RNA, PVT1, MIR1208 are shown in the panel. b VGN50 inhibits coactivator complex recruitment and c reduces H3K27Ac modification. qPCR is used to examine enrichment of DNA fragments in the presence of VGN50 or mutant peptide (24 μM). Peptide was applied 1 h prior to processing samples for CUT&RUN to replicate SLAM-seq experimental conditions. Non-specific IgG control was also included and enrichment with IgG control at each genomic region was set as 1 for b, and spiked-in luciferase plasmid DNA was used for additional internal control for c. d Formation of a larger protein complex with VGN50. Sucrose gradient sedimentation was used to monitor changes in protein complex formation in the presence of VGN50. The experiment flow chart is shown at the top of this panel. Fractions were collected from top (#1) to bottom (#23/24). Sample #24 without peptide is a smaller fraction of residual samples. Immunoblotting was performed on the odd number samples and the remaining fraction (#24 for no peptide sample) and probed with Flag-tagged SWI/SNF components (SMARCA4, SMARCC2, and SMARCB1). The position of each protein component based on molecular size is indicated. e KSHV K-Rta colocalizes with SWI/SNF components in reactivating BCBL-1 cells. TREx-BCBL-1 cells were triggered for reactivation by treatment with Dox and TPA for 28 h and stained with the indicated antibodies. Images were acquired with Keyence fluorescence microscopy. f A model for VGN50 molecular action. A model depicting the putative molecular action of VGN50 is presented. Coactivator complexes are dynamically assembled on enhancer and promoter regions via transcription factor binding. VGN50, an IDR fragment derived from an exceptionally potent viral transactivator, flexibly interacts with components of coactivators and traps them, thus reduces the available resources for cellular enhancers to activate MYC promoters.
CUT&RUN[72] was performed essentially by following the online protocol developed by Dr. Henikoff’s lab with a few modifications to fit our needs. Cells were washed with PBS and wash buffer [20 mM HEPES-KOH pH 7.5, 150 mM NaCl, 0.5 mM Spermidine (Sigma, S2626), and proteinase inhibitor (Roche)]. After removing the wash buffer, cells were captured on magnetic concanavalin A (ConA) beads (Polysciences, PA, USA) in the presence of CaCl2. […]

[2] = MYC region E1, peptide 24 μM 1 h, IgG set as 1, replicate 1
[3] = MYC region E1, peptide 24 μM 1 h, IgG set as 1, replicate 2
[4] = MYC region E1, peptide 24 μM 1 h, IgG set as 1, replicate 3
[5] = MYC region E2, peptide 24 μM 1 h, IgG set as 1, replicate 1
[6] = MYC region E2, peptide 24 μM 1 h, IgG set as 1, replicate 2
[7] = MYC region E2, peptide 24 μM 1 h, IgG set as 1, replicate 3
[8] = MYC region E3, peptide 24 μM 1 h, IgG set as 1, replicate 1
[9] = MYC region E3, peptide 24 μM 1 h, IgG set as 1, replicate 2
[10] = MYC region E3, peptide 24 μM 1 h, IgG set as 1, replicate 3
[11] = MYC region P1, peptide 24 μM 1 h, IgG set as 1, replicate 1
[12] = MYC region P1, peptide 24 μM 1 h, IgG set as 1, replicate 2
[13] = MYC region P1, peptide 24 μM 1 h, IgG set as 1, replicate 3
[14] = Myc Control region, peptide 24 μM 1 h, IgG set as 1, replicate 1
[15] = Myc Control region, peptide 24 μM 1 h, IgG set as 1, replicate 2
[16] = Myc Control region, peptide 24 μM 1 h, IgG set as 1, replicate 3

SMILES: CC(C)C[C@H](NC(=O)CCNC(=O)[C@H](CCCNC(=N)N)NC(=O)[C@H](CCCNC(=N)N)NC(=O)[C@H](CCCNC(=N)N)NC(=O)[C@H](CCCN)NC(=O)[C@H](CCCNC(=N)N)NC(=O)[C@H](CCCNC(=N)N)NC(=O)[C@H](CCCCN)NC(=O)[C@H](CCCCN)NC(=O)[C@H](N)CCCNC(=N)N)C(=O)N[C@@H](CO)C(=O)N[C@@H](CO)C(=O)N[C@@H](C)C(=O)N[C@@H](C)C(=O)N[C@@H](C)C(=O)NCC(=O)N[C@@H](CC(C)C)C(=O)N[C@@H](Cc1ccc(O)cc1)C(=O)N[C@@H](CCC(N)=O)C(=O)N[C@@H](CC(C)C)C(=O)N[C@@H](CC(=O)O)C(=O)N[C@H](C(=O)O)[C@@H](C)O [Mt-P] (H-[dR]KKRR[Orn]RRR[βAla]LSSAAAGLYQLDT-OH; N-terminus and C-terminus assumed)
- AnnexinV+% (BC-1; replicate 1): 4.73%
- AnnexinV+% (BC-1; replicate 2): 4.24%
- AnnexinV+% (BC-1; replicate 3): 4.01%
- BRD4 enrichment, CUT&RUN qPCR [1, 2]: 3.57
- PolII enrichment, CUT&RUN qPCR [1, 2]: 2.89
- SMARCA4 enrichment, CUT&RUN qPCR [1, 2]: 1.44
- BRD4 enrichment, CUT&RUN qPCR [1, 3]: 3.47
- PolII enrichment, CUT&RUN qPCR [1, 3]: 2.18
- SMARCA4 enrichment, CUT&RUN qPCR [1, 3]: 1.11
- BRD4 enrichment, CUT&RUN qPCR [1, 4]: 3.30
- PolII enrichment, CUT&RUN qPCR [1, 4]: 2.41
- SMARCA4 enrichment, CUT&RUN qPCR [1, 4]: 1.32
- BRD4 enrichment, CUT&RUN qPCR [1, 5]: 6.92
- PolII enrichment, CUT&RUN qPCR [1, 5]: 9.68
- SMARCA4 enrichment, CUT&RUN qPCR [1, 5]: 2.57
- BRD4 enrichment, CUT&RUN qPCR [1, 6]: 6.75
- PolII enrichment, CUT&RUN qPCR [1, 6]: 10.09
- SMARCA4 enrichment, CUT&RUN qPCR [1, 6]: 2.47
- BRD4 enrichment, CUT&RUN qPCR [1, 7]: 7.28
- PolII enrichment, CUT&RUN qPCR [1, 7]: 9.27
- SMARCA4 enrichment, CUT&RUN qPCR [1, 7]: 2.05
- BRD4 enrichment, CUT&RUN qPCR [1, 8]: 7.28
- PolII enrichment, CUT&RUN qPCR [1, 8]: 10.61
- SMARCA4 enrichment, CUT&RUN qPCR [1, 8]: 2.01
- BRD4 enrichment, CUT&RUN qPCR [1, 9]: 6.68
- PolII enrichment, CUT&RUN qPCR [1, 9]: 9.91
- SMARCA4 enrichment, CUT&RUN qPCR [1, 9]: 2.39
- BRD4 enrichment, CUT&RUN qPCR [1, 10]: 7.58
- PolII enrichment, CUT&RUN qPCR [1, 10]: 10.57
- SMARCA4 enrichment, CUT&RUN qPCR [1, 10]: 1.42
- BRD4 enrichment, CUT&RUN qPCR [1, 11]: 8.00
- PolII enrichment, CUT&RUN qPCR [1, 11]: 18.06
- SMARCA4 enrichment, CUT&RUN qPCR [1, 11]: 2.48
- BRD4 enrichment, CUT&RUN qPCR [1, 12]: 8.20
- PolII enrichment, CUT&RUN qPCR [1, 12]: 18.31
- SMARCA4 enrichment, CUT&RUN qPCR [1, 12]: 2.51
- BRD4 enrichment, CUT&RUN qPCR [1, 13]: 7.99
- PolII enrichment, CUT&RUN qPCR [1, 13]: 17.86
- SMARCA4 enrichment, CUT&RUN qPCR [1, 13]: 2.36
- BRD4 enrichment, CUT&RUN qPCR [1, 14]: 2.07
- PolII enrichment, CUT&RUN qPCR [1, 14]: 2.07
- SMARCA4 enrichment, CUT&RUN qPCR [1, 14]: 1.30
- BRD4 enrichment, CUT&RUN qPCR [1, 15]: 1.88
- PolII enrichment, CUT&RUN qPCR [1, 15]: 1.88
- SMARCA4 enrichment, CUT&RUN qPCR [1, 15]: 1.17
- BRD4 enrichment, CUT&RUN qPCR [1, 16]: 1.71
- PolII enrichment, CUT&RUN qPCR [1, 16]: 1.71
- SMARCA4 enrichment, CUT&RUN qPCR [1, 16]: 1.15
